Measurements reported in ChEMBL document CHEMBL1909046, “DrugMatrix in vitro pharmacology data”.

Target: Vasopressin V1a receptor (Homo sapiens, UniProt P37288); note: in other assays of this panel Not Active means under 50% inhibition at 10 µM
Assay type: cell membranes, Membrane
Conditions: hek293

Vasopressin V1a receptor, sequence (P37288 whole entry): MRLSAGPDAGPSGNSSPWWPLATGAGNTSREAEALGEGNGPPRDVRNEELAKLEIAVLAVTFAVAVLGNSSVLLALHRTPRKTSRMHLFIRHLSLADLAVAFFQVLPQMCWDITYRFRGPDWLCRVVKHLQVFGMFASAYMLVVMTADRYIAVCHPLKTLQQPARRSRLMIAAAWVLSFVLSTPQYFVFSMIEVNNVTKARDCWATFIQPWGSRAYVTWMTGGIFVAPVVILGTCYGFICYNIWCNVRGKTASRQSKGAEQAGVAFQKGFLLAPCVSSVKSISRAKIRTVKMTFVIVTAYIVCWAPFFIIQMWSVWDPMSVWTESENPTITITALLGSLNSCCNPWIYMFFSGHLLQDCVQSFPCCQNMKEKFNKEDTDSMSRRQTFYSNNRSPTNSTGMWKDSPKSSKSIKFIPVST

SMILES	IC50
CC[C@@H](CO)NCCN[C@@H](CC)CO [ETHAMBUTOL]	Not Active
CC1(C)O[C@@H]2C[C@H]3[C@@H]4C[C@H](F)C5=CC(=O)C=C[C@]5(C)[C@H]4[C@@H](O)C[C@]3(C)[C@]2(C(=O)CO)O1 [FLUNISOLIDE]	Not Active
CC1(C)O[C@@H]2C[C@H]3[C@@H]4C[C@H](F)C5=CC(=O)CC[C@]5(C)[C@H]4[C@@H](O)C[C@]3(C)[C@]2(C(=O)CO)O1 [FLURANDRENOLIDE]	Not Active
CN(C)c1ccc(C(=C2C=CC(=[N+](C)C)C=C2)c2ccc(N(C)C)cc2)cc1.[Cl-] [GENTIAN VIOLET]	Not Active
NC(=O)NO [HYDROXYUREA]	Not Active
CC(C)Cc1ccc(C(C)C(=O)O)cc1 (stereo not drawn) [IBUPROFEN]	Not Active
CCc1c2c(nc3ccc(OC(=O)N4CCC(N5CCCCC5)CC4)cc13)-c1cc3c(c(=O)n1C2)COC(=O)[C@]3(O)CC [IRINOTECAN]	Not Active
CC(C(=O)O)c1cccc(C(=O)c2ccccc2)c1 (stereo not drawn) [KETOPROFEN]	Not Active
Nc1ccn([C@@H]2CS[C@H](CO)O2)c(=O)n1 [LAMIVUDINE]	Not Active

Target: Protein kinase C alpha type (Homo sapiens, UniProt P17252);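 note: inhibition of PKCalpha kinase activity measured in an enzyme assay with histone as the phosphorylation substrate; in other assays of this panel Not Active means under 50% inhibition at 10 µM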
Assay type: cell-based
Conditions: sf9

SMILES	IC50
CC[C@@H](CO)NCCN[C@@H](CC)CO [ETHAMBUTOL]	Not Active
CC1(C)O[C@@H]2C[C@H]3[C@@H]4C[C@H](F)C5=CC(=O)C=C[C@]5(C)[C@H]4[C@@H](O)C[C@]3(C)[C@]2(C(=O)CO)O1 [FLUNISOLIDE]	Not Active
CC1(C)O[C@@H]2C[C@H]3[C@@H]4C[C@H](F)C5=CC(=O)CC[C@]5(C)[C@H]4[C@@H](O)C[C@]3(C)[C@]2(C(=O)CO)O1 [FLURANDRENOLIDE]	Not Active
CN(C)c1ccc(C(=C2C=CC(=[N+](C)C)C=C2)c2ccc(N(C)C)cc2)cc1.[Cl-] [GENTIAN VIOLET]	Not Active
NC(=O)NO [HYDROXYUREA]	Not Active
CC(C)Cc1ccc(C(C)C(=O)O)cc1 (stereo not drawn) [IBUPROFEN]	Not Active
CCc1c2c(nc3ccc(OC(=O)N4CCC(N5CCCCC5)CC4)cc13)-c1cc3c(c(=O)n1C2)COC(=O)[C@]3(O)CC [IRINOTECAN]	Not Active
CC(C(=O)O)c1cccc(C(=O)c2ccccc2)c1 (stereo not drawn) [KETOPROFEN]	Not Active
Nc1ccn([C@@H]2CS[C@H](CO)O2)c(=O)n1 [LAMIVUDINE]	Not Active

Target: Estrogen receptor beta (Homo sapiens, UniProt Q92731); note: in other assays of this panel Not Active means under 50% inhibition at 10 µM
Conditions: sf9

Estrogen receptor beta, sequence (Q92731 whole entry): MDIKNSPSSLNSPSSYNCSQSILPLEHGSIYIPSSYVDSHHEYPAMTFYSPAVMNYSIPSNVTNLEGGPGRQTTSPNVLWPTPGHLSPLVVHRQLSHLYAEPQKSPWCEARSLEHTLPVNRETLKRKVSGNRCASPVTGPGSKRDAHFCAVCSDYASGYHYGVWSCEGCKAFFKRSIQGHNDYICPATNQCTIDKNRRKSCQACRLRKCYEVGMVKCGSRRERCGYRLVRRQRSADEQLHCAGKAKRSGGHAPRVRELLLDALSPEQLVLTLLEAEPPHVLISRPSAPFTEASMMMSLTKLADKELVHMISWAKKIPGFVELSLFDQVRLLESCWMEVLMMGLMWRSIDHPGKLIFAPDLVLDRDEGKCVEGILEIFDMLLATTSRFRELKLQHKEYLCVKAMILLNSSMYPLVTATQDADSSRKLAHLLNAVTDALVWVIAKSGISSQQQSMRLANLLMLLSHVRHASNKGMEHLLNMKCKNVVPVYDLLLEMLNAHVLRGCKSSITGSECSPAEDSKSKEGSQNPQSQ

SMILES	IC50
CC[C@@H](CO)NCCN[C@@H](CC)CO [ETHAMBUTOL]	Not Active
CC1(C)O[C@@H]2C[C@H]3[C@@H]4C[C@H](F)C5=CC(=O)C=C[C@]5(C)[C@H]4[C@@H](O)C[C@]3(C)[C@]2(C(=O)CO)O1 [FLUNISOLIDE]	Not Active
CC1(C)O[C@@H]2C[C@H]3[C@@H]4C[C@H](F)C5=CC(=O)CC[C@]5(C)[C@H]4[C@@H](O)C[C@]3(C)[C@]2(C(=O)CO)O1 [FLURANDRENOLIDE]	Not Active
CN(C)c1ccc(C(=C2C=CC(=[N+](C)C)C=C2)c2ccc(N(C)C)cc2)cc1.[Cl-] [GENTIAN VIOLET]	Not Active
NC(=O)NO [HYDROXYUREA]	Not Active
CC(C)Cc1ccc(C(C)C(=O)O)cc1 (stereo not drawn) [IBUPROFEN]	Not Active
CCc1c2c(nc3ccc(OC(=O)N4CCC(N5CCCCC5)CC4)cc13)-c1cc3c(c(=O)n1C2)COC(=O)[C@]3(O)CC [IRINOTECAN]	Not Active
CC(C(=O)O)c1cccc(C(=O)c2ccccc2)c1 (stereo not drawn) [KETOPROFEN]	Not Active
Nc1ccn([C@@H]2CS[C@H](CO)O2)c(=O)n1 [LAMIVUDINE]	Not Active

Target: T1, Progesterone receptor (Bos taurus, UniProt Q690N0)
T1 sequence (Q690N0 whole entry): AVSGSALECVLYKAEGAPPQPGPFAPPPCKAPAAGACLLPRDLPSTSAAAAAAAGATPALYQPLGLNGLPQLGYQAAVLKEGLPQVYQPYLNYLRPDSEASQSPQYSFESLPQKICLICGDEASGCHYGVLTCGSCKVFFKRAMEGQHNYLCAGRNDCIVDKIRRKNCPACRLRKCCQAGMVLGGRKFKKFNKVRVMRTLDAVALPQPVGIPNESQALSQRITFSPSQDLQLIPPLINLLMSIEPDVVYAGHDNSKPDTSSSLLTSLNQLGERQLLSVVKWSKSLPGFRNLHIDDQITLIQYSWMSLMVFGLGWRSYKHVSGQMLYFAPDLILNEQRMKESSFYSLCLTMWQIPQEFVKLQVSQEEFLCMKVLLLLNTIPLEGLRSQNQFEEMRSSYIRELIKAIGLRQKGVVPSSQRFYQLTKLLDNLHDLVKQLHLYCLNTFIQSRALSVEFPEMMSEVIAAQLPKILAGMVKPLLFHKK
Test: DRUGMATRIX: Progesterone radioligand binding (ligand: [3H] R-5020)
Assay type: tissue-based, Uterus
Conditions: Not Active = under 50% inhibition at 10 µM

SMILES	IC50
CC[C@@H](CO)NCCN[C@@H](CC)CO [ETHAMBUTOL]	Not Active
CN(C)c1ccc(C(=C2C=CC(=[N+](C)C)C=C2)c2ccc(N(C)C)cc2)cc1.[Cl-] [GENTIAN VIOLET]	Not Active
NC(=O)NO [HYDROXYUREA]	Not Active
CC(C)Cc1ccc(C(C)C(=O)O)cc1 (stereo not drawn) [IBUPROFEN]	Not Active
CCc1c2c(nc3ccc(OC(=O)N4CCC(N5CCCCC5)CC4)cc13)-c1cc3c(c(=O)n1C2)COC(=O)[C@]3(O)CC [IRINOTECAN]	Not Active
CC(C(=O)O)c1cccc(C(=O)c2ccccc2)c1 (stereo not drawn) [KETOPROFEN]	Not Active
Nc1ccn([C@@H]2CS[C@H](CO)O2)c(=O)n1 [LAMIVUDINE]	Not Active

Same assay, conditions: Not Active = under 50% inhibition at 10 µM; read-out: IC50

SMILES	IC50 [µM]
CC1(C)O[C@@H]2C[C@H]3[C@@H]4C[C@H](F)C5=CC(=O)C=C[C@]5(C)[C@H]4[C@@H](O)C[C@]3(C)[C@]2(C(=O)CO)O1 [FLUNISOLIDE]	0.359
CC1(C)O[C@@H]2C[C@H]3[C@@H]4C[C@H](F)C5=CC(=O)CC[C@]5(C)[C@H]4[C@@H](O)C[C@]3(C)[C@]2(C(=O)CO)O1 [FLURANDRENOLIDE]	0.172

Same assay, conditions: Not Active = under 50% inhibition at 10 µM; read-out: Ki

SMILES	Ki [µM]
CC1(C)O[C@@H]2C[C@H]3[C@@H]4C[C@H](F)C5=CC(=O)C=C[C@]5(C)[C@H]4[C@@H](O)C[C@]3(C)[C@]2(C(=O)CO)O1 [FLUNISOLIDE]	0.047
CC1(C)O[C@@H]2C[C@H]3[C@@H]4C[C@H](F)C5=CC(=O)CC[C@]5(C)[C@H]4[C@@H](O)C[C@]3(C)[C@]2(C(=O)CO)O1 [FLURANDRENOLIDE]	0.022

Test system: not listed separately
Test: DRUGMATRIX: Purinergic P2X radioligand binding (ligand: [3H] alpha, beta-Methylene-ATP)
Assay type: cell membranes, Oryctolagus cuniculus, New Zealand albino, Urinary bladder, Membrane
Conditions: Not Active = under 50% inhibition at 10 µM

SMILES	IC50	Ki
CC[C@@H](CO)NCCN[C@@H](CC)CO [ETHAMBUTOL]	Not Active	Not Active
CC1(C)O[C@@H]2C[C@H]3[C@@H]4C[C@H](F)C5=CC(=O)C=C[C@]5(C)[C@H]4[C@@H](O)C[C@]3(C)[C@]2(C(=O)CO)O1 [FLUNISOLIDE]	Not Active	Not Active
CC1(C)O[C@@H]2C[C@H]3[C@@H]4C[C@H](F)C5=CC(=O)CC[C@]5(C)[C@H]4[C@@H](O)C[C@]3(C)[C@]2(C(=O)CO)O1 [FLURANDRENOLIDE]	Not Active	Not Active
CN(C)c1ccc(C(=C2C=CC(=[N+](C)C)C=C2)c2ccc(N(C)C)cc2)cc1.[Cl-] [GENTIAN VIOLET]	Not Active	Not Active
NC(=O)NO [HYDROXYUREA]	Not Active	Not Active
CC(C)Cc1ccc(C(C)C(=O)O)cc1 (stereo not drawn) [IBUPROFEN]	Not Active	Not Active
CCc1c2c(nc3ccc(OC(=O)N4CCC(N5CCCCC5)CC4)cc13)-c1cc3c(c(=O)n1C2)COC(=O)[C@]3(O)CC [IRINOTECAN]	Not Active	Not Active
CC(C(=O)O)c1cccc(C(=O)c2ccccc2)c1 (stereo not drawn) [KETOPROFEN]	Not Active	Not Active
Nc1ccn([C@@H]2CS[C@H](CO)O2)c(=O)n1 [LAMIVUDINE]	Not Active	Not Active

Test system: not listed separately
Test: DRUGMATRIX: Calcium Channel Type L, Dihydropyridine radioligand binding (ligand: [3H] Nitrendipine)
Assay type: cell membranes, Rattus norvegicus, Wistar, Cerebral cortex, Membrane
Conditions: Not Active = under 50% inhibition at 10 µM

SMILES	IC50	Ki
CC[C@@H](CO)NCCN[C@@H](CC)CO [ETHAMBUTOL]	Not Active	Not Active
CC1(C)O[C@@H]2C[C@H]3[C@@H]4C[C@H](F)C5=CC(=O)C=C[C@]5(C)[C@H]4[C@@H](O)C[C@]3(C)[C@]2(C(=O)CO)O1 [FLUNISOLIDE]	Not Active	Not Active
CC1(C)O[C@@H]2C[C@H]3[C@@H]4C[C@H](F)C5=CC(=O)CC[C@]5(C)[C@H]4[C@@H](O)C[C@]3(C)[C@]2(C(=O)CO)O1 [FLURANDRENOLIDE]	Not Active	Not Active
NC(=O)NO [HYDROXYUREA]	Not Active	Not Active
CC(C)Cc1ccc(C(C)C(=O)O)cc1 (stereo not drawn) [IBUPROFEN]	Not Active	Not Active
CCc1c2c(nc3ccc(OC(=O)N4CCC(N5CCCCC5)CC4)cc13)-c1cc3c(c(=O)n1C2)COC(=O)[C@]3(O)CC [IRINOTECAN]	Not Active	Not Active
CC(C(=O)O)c1cccc(C(=O)c2ccccc2)c1 (stereo not drawn) [KETOPROFEN]	Not Active	Not Active
Nc1ccn([C@@H]2CS[C@H](CO)O2)c(=O)n1 [LAMIVUDINE]	Not Active	Not Active

Same assay, conditions: Not Active = under 50% inhibition at 10 µM; read-out: IC50

SMILES	IC50 [µM]
CN(C)c1ccc(C(=C2C=CC(=[N+](C)C)C=C2)c2ccc(N(C)C)cc2)cc1.[Cl-] [GENTIAN VIOLET]	2.13

Same assay, conditions: Not Active = under 50% inhibition at 10 µM; read-out: Ki

SMILES	Ki [µM]
CN(C)c1ccc(C(=C2C=CC(=[N+](C)C)C=C2)c2ccc(N(C)C)cc2)cc1.[Cl-] [GENTIAN VIOLET]	1.37

Target: T2, Neuropeptide Y receptor type 2 (Homo sapiens, UniProt P49146); note: in other assays of this panel Not Active means under 50% inhibition at 10 µM
T2 sequence (P49146 whole entry): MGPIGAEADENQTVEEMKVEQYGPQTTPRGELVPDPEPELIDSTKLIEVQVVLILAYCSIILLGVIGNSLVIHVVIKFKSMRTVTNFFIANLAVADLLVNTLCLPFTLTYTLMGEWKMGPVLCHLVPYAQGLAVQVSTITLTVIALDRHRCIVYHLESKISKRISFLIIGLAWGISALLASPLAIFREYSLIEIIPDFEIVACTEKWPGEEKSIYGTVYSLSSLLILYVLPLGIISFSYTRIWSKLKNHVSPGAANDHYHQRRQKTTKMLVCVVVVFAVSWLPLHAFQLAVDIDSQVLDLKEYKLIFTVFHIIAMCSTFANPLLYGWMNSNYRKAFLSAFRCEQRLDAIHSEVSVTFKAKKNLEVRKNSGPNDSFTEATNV
Assay type: cell membranes, Membrane
Conditions: kan-ts

SMILES	IC50
CC[C@@H](CO)NCCN[C@@H](CC)CO [ETHAMBUTOL]	Not Active
CC1(C)O[C@@H]2C[C@H]3[C@@H]4C[C@H](F)C5=CC(=O)C=C[C@]5(C)[C@H]4[C@@H](O)C[C@]3(C)[C@]2(C(=O)CO)O1 [FLUNISOLIDE]	Not Active
CC1(C)O[C@@H]2C[C@H]3[C@@H]4C[C@H](F)C5=CC(=O)CC[C@]5(C)[C@H]4[C@@H](O)C[C@]3(C)[C@]2(C(=O)CO)O1 [FLURANDRENOLIDE]	Not Active
CN(C)c1ccc(C(=C2C=CC(=[N+](C)C)C=C2)c2ccc(N(C)C)cc2)cc1.[Cl-] [GENTIAN VIOLET]	Not Active
NC(=O)NO [HYDROXYUREA]	Not Active
CC(C)Cc1ccc(C(C)C(=O)O)cc1 (stereo not drawn) [IBUPROFEN]	Not Active
CCc1c2c(nc3ccc(OC(=O)N4CCC(N5CCCCC5)CC4)cc13)-c1cc3c(c(=O)n1C2)COC(=O)[C@]3(O)CC [IRINOTECAN]	Not Active
CC(C(=O)O)c1cccc(C(=O)c2ccccc2)c1 (stereo not drawn) [KETOPROFEN]	Not Active
Nc1ccn([C@@H]2CS[C@H](CO)O2)c(=O)n1 [LAMIVUDINE]	Not Active
